Test results published in patent publication US20090286713A9, “Collagen Receptor I-Domain Binding Modulators” (Biotie Therapies Corporation, priority 2005, published 2009).

Key:
α2 I-domain = molecular target: T1, α2 I-domain (Homo sapiens, UniProt P17301); assay: Solid-phase binding assay, α2 I-domain binding to type I collagen
T1 construct: corresponded to amino acids 124-339 of the whole α2 integrin; made in house; host or cells: E. coli BL21 (pGEX-2T)
T1 sequence (P17301 153-368): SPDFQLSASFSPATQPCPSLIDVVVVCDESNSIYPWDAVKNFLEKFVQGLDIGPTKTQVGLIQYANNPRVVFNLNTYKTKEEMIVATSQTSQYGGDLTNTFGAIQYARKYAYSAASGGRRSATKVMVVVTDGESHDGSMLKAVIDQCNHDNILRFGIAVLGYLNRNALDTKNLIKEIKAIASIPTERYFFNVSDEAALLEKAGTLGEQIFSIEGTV
Experimental: Solid-phase binding assay for α1-domains—The coating of a 96-well high binding microtiter plate (Nune) was done by exposure to 0.1 ml of PBS containing 5 μg/cm2 (15 μg/ml) collagens or 20 μg/ml triple-helical peptides overnight at +4° C. Blank wells were coated with 1:1 solution of 0.1 ml Delfia® Diluent II (Wallac) and PBS. Residual protein absorption sites on all wells were blocked with 1:1 solution of 0.1 ml Delfia® Diluent II (Wallac) and PBS. Recombinant proteins (αI-GST) were added to the coated wells at a desired concentration in Delfia® Assay Buffer and incubated for 1 h at room temperature. Europium-labelled anti-GST antibody (Wallac) was then added (typically 1:1000), and the mixture was incubated for 1 h at room temperature. All incubations mentioned above were done in the presence of 2 mM MgCl2. Delfia® enhancement solution (Wallac) was added to each well and the Europium signal was measured by time-resolved fluorometry (Victor2 multilabel counter, Wallac). At least three parallel wells were analyzed. In some cases some what modified solid-phase assay was used and it was performed according Tulla et al, 2001. It uses anti-GST and Europium-labelled protein G instead of Europium-labelled anti-GST antibody.
The tetracyclic Streptomyces compounds synthesised in Example 1, where screened for inhibition of collagen binding to α1 and α2 I-domains, using the α I-domain assay described in Example 4. […] L3015 could inhibit the binding of both α1I and α2 I-domains to type I and type IV collagen (FIG. 6B).
Based on the utilization of 3D model other compounds from the polyketide family were tested. The compounds were tested in the europium-labelled anti-GST assay described in Example 4. Tetracyclic polyketides L3007, L3008, and L3009 could inhibit α2 I-domain binding to type I collagen (FIG. 8A).

[1] = molecular target: T2, CHO cells expressing α2β1 integrin (Homo sapiens, UniProt P05556+P17301); assay: Cell adhesion assay, CHO-α2 cells on collagen type I; format: cell-based, Chinese Hamster; conditions: CHO cells expressing α2β1; FIG. 10A; read-out: EC50 of cell adhesion to type I collagen
T2 sequence (P17301 1-1181): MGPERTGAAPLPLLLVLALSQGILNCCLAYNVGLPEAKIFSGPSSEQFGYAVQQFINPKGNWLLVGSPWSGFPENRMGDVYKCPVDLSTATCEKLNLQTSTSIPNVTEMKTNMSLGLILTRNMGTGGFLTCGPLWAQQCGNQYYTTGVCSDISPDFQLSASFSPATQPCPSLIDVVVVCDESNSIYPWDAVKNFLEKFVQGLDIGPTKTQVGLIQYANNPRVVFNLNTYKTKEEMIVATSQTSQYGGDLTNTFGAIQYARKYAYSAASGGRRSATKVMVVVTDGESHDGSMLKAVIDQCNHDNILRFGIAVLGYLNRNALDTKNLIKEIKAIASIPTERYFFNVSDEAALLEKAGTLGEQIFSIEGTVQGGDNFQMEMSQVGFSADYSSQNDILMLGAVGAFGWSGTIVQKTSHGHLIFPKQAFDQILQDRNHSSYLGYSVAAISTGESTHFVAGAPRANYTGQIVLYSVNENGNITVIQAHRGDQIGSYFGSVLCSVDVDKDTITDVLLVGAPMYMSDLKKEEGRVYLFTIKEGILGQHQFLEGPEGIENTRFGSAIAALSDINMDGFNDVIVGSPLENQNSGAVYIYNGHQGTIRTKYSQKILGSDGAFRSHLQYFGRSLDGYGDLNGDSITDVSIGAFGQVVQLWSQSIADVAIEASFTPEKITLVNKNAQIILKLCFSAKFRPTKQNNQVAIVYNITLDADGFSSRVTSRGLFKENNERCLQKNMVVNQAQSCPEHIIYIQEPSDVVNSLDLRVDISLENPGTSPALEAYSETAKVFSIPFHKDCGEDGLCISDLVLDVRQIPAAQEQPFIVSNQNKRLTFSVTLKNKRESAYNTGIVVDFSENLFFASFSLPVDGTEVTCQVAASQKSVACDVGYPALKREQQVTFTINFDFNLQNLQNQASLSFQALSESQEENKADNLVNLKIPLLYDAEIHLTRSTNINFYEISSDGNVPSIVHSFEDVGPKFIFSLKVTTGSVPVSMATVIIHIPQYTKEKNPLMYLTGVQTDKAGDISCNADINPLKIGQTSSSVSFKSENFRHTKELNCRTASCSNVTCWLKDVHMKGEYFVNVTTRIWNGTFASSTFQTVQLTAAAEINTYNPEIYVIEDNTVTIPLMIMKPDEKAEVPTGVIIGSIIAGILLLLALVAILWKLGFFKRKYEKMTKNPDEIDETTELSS
Experimental: (§1) Chinese Hamster Ovary (CHO) cell clone expressing wild type α2 integrin was used in cell adhesion assay. Cells were suspended in serum free medium containing 0.1 mg/ml cycloheximide (Sigma) and the compounds were preincubated with the cells prior to transfer to the wells. Cells (150000/well) were allowed to attach on collagen type I coated wells (in the presence and absence of inhibitor compounds) for 2 h at +37° C. and after that non-adherent cells were removed. Fresh serum free medium was added and the living cells were detected using a cell viability kit (Roche) according to the manufacturers protocol.
(§2) For this purpose CHO cells were transfected to express α2β1 integrin on their surface as their only collagen receptor.

[2] = molecular target: T3, CHO cells expressing α2β1 integrin (Homo sapiens, UniProt P17301); assay: as above; format: cell-based, Chinese Hamster; conditions: FIG. 10A, 10B
T3 sequence (P17301 1-1181): T2 sequence (P17301 1-1181)
Experimental: as §1, §2

inhibition of α2 I-domain binding to type I collagen (in words) (α2 I-domain; FIG. 6B, 7A, 8A): could inhibit
inhibition of collagen I binding of α2I (α2 I-domain; at 0.05 mM concentration, FIG. 9): could inhibit
EC50 [1]: ~20 µM
inhibition of cell adhesion to collagen type I (in words) [2]: potent inhibitor
SMILES: COC(=O)c1c(C(C)C)cc(O)c2c(O)c3c(c(O)c12)C(=O)c1cccc(O)c1C3=O [Compound L3009, methyl 4,5,7,12-tetrahydroxy-2-methylethyl)-6,11-dioxonaphthacenecarboxylate]
